Experimental data from patent US9403850B2, “Beta-lactamase inhibitors” (priority 2013, dated 2016).

Key:
[1] = system: P. aeruginosa Ps296 expressing VIM-2; test: Broth microdilution MIC assay, partner meropenem; format: cell-based; details: Pseudomonas aeruginosa, read-out: MIC of Exemplary Compounds in presence of fixed β-lactams, Fixed Mero, P. aerug. Ps296 VIM-2
[2] = system: K. pneumoniae 156319 expressing KPC-3; test: Broth microdilution MIC assay, partner meropenem; format: cell-based; details: Klebsiella pneumoniae, read-out: MIC of Exemplary Compounds in presence of fixed β-lactams, Fixed Mero, K.P. 156319 KPC-3
[3] = system: E. cloacae 144200 expressing Class C P99 AmpC; test: Broth microdilution MIC assay, partner ceftazidime; format: cell-based; details: for MIC: Enterobacter cloacae, read-out: MIC of Exemplary Compounds in presence of fixed β-lactams, Fixed CAZ, E. cl. 144200 p99 AmpC
VIM-2 = target: T1, VIM-2 (Escherichia coli, UniProt Q5U7L7); test: β-Lactamase enzyme inhibition assay, VIM-2 (nitrocefin substrate); format: biochemical; details: nitrocefin substrate 100 μM, 15 min preincubation at 37° C.; read-out: IC50, Class B VIM-2
T1 construct: made in house; host or cells: E. coli BL21(DE3)
Experimental: For Vim-2 metallo β-lactamase, the procedure was identical with the following exceptions, first the protein was not pH adjusted to pH 5 with 50 mM sodium acetate, second, the chromatography step was changed to a 5 ml Q sepharose anion exchange column pre-equilibrated with 50 mM Hepes pH 7.5, and elution of the protein was achieved by a linear gradient of NaCl (0-600 mM). Finally, the VIM-2 purification required a second run (3rd step) on the Q sepharose anion exchange column to achieve acceptable purity (>90%).
An equal volume of diluted enzyme stock was added, and the plates were incubated at 37° C. for 15 min. Nitrocefin was used as substrate for p99 AmpC, VIM-2 and OXA-1 and dispensed into each well at a final concentration of 100 μM. Absorbance at 486 nm was immediately monitored for 10 min using a Biotek Powerwave XS2 microplate spectrophotometer using the GEN5 softweare package (Biotek Instruments, Winooski Vt.). In an analogous fashion, imipenem was used as substrate for Kpc-2 and Cefotaxime was used for SHV-5, while changes in absorbance upon hydrolysis of the β-lactam ring were monitored at 300 nm and 260 nm respectively in UV-transparent 96-well microtiter assay plates. Maximum rates of hydrolysis were compared to those in control wells (without inhibitors), and percentages of enzyme inhibition were calculated for each concentration of inhibitor. The concentration of inhibitor needed to reduce the initial rate of hydrolysis of substrate by 50% (IC50) was calculated as the residual activity of β-lactamase at 486 nm using GraFit version 7 kinetics software package (Erithacus Software, Surrey, UK).
Using the methodology described above, examples of the current invention were evaluated for their ability to inhibit β-lactamase enzymes from all four Ambler classifications (A through D). […] NT=Not tested.

[4] = system: S. aureus MSSA-7 producing penicillinase PC-1; test: Broth microdilution MIC assay, partner piperacillin; format: cell-based; details: Staphylococcus aureus, fixed piperacillin 4 μg/mL, read-out: MIC of Exemplary Compounds in presence of fixed β-lactams, Fixed Pip, S. aureus MSSA-7 PC-1
[5] = system: E. coli ESBL4 expressing CTX-M-15; test: Broth microdilution MIC assay, partner ceftazidime;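 further: ceftazidime held fixed at 4 µg/mL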; format: cell-based; details: Escherichia coli, read-out: MIC of Exemplary Compounds in presence of fixed β-lactams, Fixed CAZ, E. coli ESBL4 CTX-M-15
[6] = system: K. pneumoniae A-1797 expressing KPC-2 and VIM-4; test: Broth microdilution MIC assay, partner meropenem; format: cell-based; details: Klebsiella pneumoniae, read-out: MIC of Exemplary Compounds in presence of fixed β-lactams, Fixed Mero, K.P. A-1797 KPC-2 VIM-4

SMILES	MIC [1]	MIC [2]	MIC of Exemplary Compounds in presence of fixed β-lactams, Fixed CAZ, E. cl. 144200 p99 AmpC ([3]; fixed ceftazidime 4 μg/mL)	IC50 (VIM-2)	MIC [4]	MIC [5]	MIC [6]	MIC [3]
NCc1cc(CN)cc(C(=O)N[C@H]2Cc3cccc(C(=O)O)c3OB2O)c1 [Example 44, (R)-3-(3,5-bis(aminomethyl)benzamido)-2-hydroxy-3,4-dihydro-2H-benzo[e][1,2]oxaborinine-8-carboxylic acid]	> 32 µg/mL	> 32 µg/mL	A (A represents an MIC of the fixed β-lactam antibiotic in the presence of >32 μg/mL of a β-lactamase inhibitor of exemplary compounds)	1000 to 10000 nM	> 32 µg/mL	8 to 32 µg/mL	> 32 µg/mL	–
N=C(N)NCc1cc(CNC(=N)N)cc(C(=O)N[C@H]2Cc3cccc(C(=O)O)c3OB2O)c1 [Example 45, (R)-3-(3,5-bis(guanidinomethyl)benzamido)-2-hydroxy-3,4-dihydro-2H-benzo[e][1,2]oxaborinine-8-carboxylic acid]	< 4 µg/mL	< 4 µg/mL	–	< 100 nM	> 32 µg/mL	< 4 µg/mL	< 4 µg/mL	< 4 µg/mL
O=C(Cc1ccc2cc[nH]c2c1)N[C@H]1Cc2cccc(C(=O)O)c2OB1O [Example 46, (R)-2-Hydroxy-3-(2-1H-indol-6-yl-acetylamino)-3,4-dihydro-2H-benzo[e][1,2]oxaborinine-8-carboxylic acid]	< 4 µg/mL	< 4 µg/mL	–	< 100 nM	8 to 32 µg/mL	< 4 µg/mL	< 4 µg/mL	< 4 µg/mL
O=C(N[C@H]1Cc2cccc(C(=O)O)c2OB1O)c1ccc(-c2ncc[nH]2)cc1 [Example 47, (R)-2-Hydroxy-3-[4-(1H-imidazol-2-yl)-benzoylamino]-3,4-dihydro-2H-benzo[e][1,2]oxaborinine-8-carboxylic acid]	8 to 32 µg/mL	< 4 µg/mL	–	100 to 1000 nM	< 4 µg/mL	< 4 µg/mL	> 32 µg/mL	< 4 µg/mL
CN1Cc2ccc(CC(=O)N[C@H]3Cc4cccc(C(=O)O)c4OB3O)cc2C1 [Example 48, (R)-2-Hydroxy-3-[2-(2-methyl-2,3-dihydro-1H-isoindol-5-yl)-acetylamino]-3,4-dihydro-2H-benzo[e][1,2]oxaborinine-8-carboxylic acid]	< 4 µg/mL	< 4 µg/mL	–	< 100 nM	< 4 µg/mL	< 4 µg/mL	< 4 µg/mL	< 4 µg/mL
NCCN1Cc2ccc(CC(=O)N[C@H]3Cc4cccc(C(=O)O)c4OB3O)cc2C1 [Example 49, (R)-3-{2-[2-(2-Amino-ethyl)-2,3-dihydro-1H-isoindol-5-yl]-acetylamino}-2-hydroxy-3,4-dihydro-2H-benzo[e][1,2]oxaborinine-8-carboxylic acid]	< 4 µg/mL	< 4 µg/mL	–	100 to 1000 nM	< 4 µg/mL	< 4 µg/mL	> 32 µg/mL	< 4 µg/mL
O=C(N[C@H]1Cc2cccc(C(=O)O)c2OB1O)c1cnc2c(c1)CNC2 [Example 50, (3R)-3-(6,7-dihydro-5H-pyrrolo[3,4-b]pyridine-3-carbonylamino)-2-hydroxy-3,4-dihydro-1,2-benzoxaborinine-8-carboxylic acid]	< 4 µg/mL	< 4 µg/mL	–	100 to 1000 nM	< 4 µg/mL	< 4 µg/mL	> 32 µg/mL	< 4 µg/mL
O=C(Cc1ccc2c(c1)CNCC2)N[C@H]1Cc2cccc(C(=O)O)c2OB1O [Example 51, (R)-2-Hydroxy-3-(2-1,2,3,4-tetrahydro-isoquinolin-7-yl-acetylamino)-3,4-dihydro-2H-benzo[e][1,2]oxaborinine-8-carboxylic acid]	< 4 µg/mL	< 4 µg/mL	–	< 100 nM	< 4 µg/mL	< 4 µg/mL	< 4 µg/mL	< 4 µg/mL
O=C(N[C@H]1Cc2cccc(C(=O)O)c2OB1O)c1cnco1 [Example 52, (R)-2-Hydroxy-3-[(oxazole-5-carbonyl)-amino]-3,4-dihydro-2H-benzo[e][1,2]oxaborinine-8-carboxylic acid]	8 to 32 µg/mL	< 4 µg/mL	–	100 to 1000 nM	< 4 µg/mL	< 4 µg/mL	> 32 µg/mL	< 4 µg/mL
